| melting point [°C] | Structure (SMILES) |
| --- | --- |
| 174 to 175 | Cc1ccccc1P(=O)(O)c1ccccc1C |
| 90 | CC(C)(SCc1cc2cc(C(F)(F)F)ccc2n1S(=O)(=O)c1ccccc1)C(=O)O |
| 193 to 196 | CCC(=O)Nc1cc(C2=NNC(=O)CC2C)ccc1N1CCOCC1 (stereo not given) |
| 213 to 214 | C[C@H]([C@@H](C)P(=S)(c1ccccc1)c1ccccc1)P(=S)(c1ccccc1)c1ccccc1 |
| 138 to 144 | Cc1cccc(-c2[nH]c(C(C)C)nc2-c2cccc(-c3ccc(C(N)=O)cn3)c2)n1 |
| 223 to 225 | Cc1cccc2c1ccc1c(O)cc(=O)oc12 |
| 195 to 197 | CC(C(O)c1ccc(OC(=O)c2ccc(CNC(C)(C)C)cc2)cc1)N1CCC(O)(c2ccccc2)CC1 (stereo not given) |
| 72.1 | N#Cc1ccc(C(=O)C23CCCN2C(=O)N(c2cc(Cl)cc(Cl)c2)C3=O)cc1 (stereo not given) |
| 169 to 171 | Cc1nc(Cl)c2c(C)c(C)n(-c3c(C)cc(C)c4nsnc34)c2n1 |
| 203 to 205 | O=C(C=Cc1ccc(OC(F)(F)F)cc1)N1CCc2c([nH]c3ccccc23)C1c1ccc2c(c1)OCO2 (stereo not given) |
| 57 to 59 | c1ccc(SCCCSc2nnnn2-c2ccccc2)cc1 |
| 241 | O=c1nc(-c2cccc(OCc3ccccc3)n2)sc2ccccc12 |
| 210 to 212 | CC1(C)CC(=O)c2c(nc(C3CCCC3)c(C(=O)c3ccc(C(F)(F)F)cc3)c2-c2ccc(F)c(F)c2)C1 |
| 160 | Cc1cccc(NC(=O)NCC(=O)N2[C@@H](C(=O)OC(C)(C)C)C[C@H](C(=O)O)[C@H]2c2ccccc2)c1 (racemic) |
| 206 to 207 | O=C1Nc2ccccc2C12COc1cc3nccnc3cc12 (stereo not given) |
| 176 to 178 | Nc1c(Cl)cnnc1Cl |
| 188 to 190 | NCCN1CCN(CC(=O)N2c3ccccc3C(=O)Nc3cccnc32)CC1 |
| 78 to 79 | OCCc1ccc(Oc2cc(C(F)(F)F)ccn2)cc1 |
| 199 to 201 | Cc1oc(-c2ccccc2)nc1CCOc1ccc(C[C@H](NC(=O)C=Cc2ccc(F)cc2F)C(=O)O)cc1 |
| 175 to 176 | COc1ccc(CCC(=O)O)cc1C(=O)NCc1cccnc1 |
| 186 | CC[C@@H]1O[C@](C#CC2CC2)(C(F)(F)F)c2cc(F)ccc2NC1=O (relative stereo) |
| 131 to 133 | N#Cc1cc(-c2ccoc2)c2ccc(OCc3cccc(-c4ccccc4)n3)cc2c1 |
| 194 to 196 | COc1cc2c(cc1OC)C(C(=O)O)C(c1ccc(OCc3ccccc3)c(OCc3ccccc3)c1)N(C)C2=O (stereo not given) |

| melting point [°C] | Structure (SMILES) |
| --- | --- |
| 77 to 78 | Clc1ccc(-c2noc(CCC#Cc3ccccn3)n2)c(Cl)c1 |
| 195 | Cc1c(-c2ccccc2)c(OCc2ncnn2C)nn2c(-c3ccccc3)nnc12 |
| 194 to 197 | CCc1cn(C2CC(O)C(CNC(=O)C(C)Cc3c(Cl)cccc3Cl)O2)c(=O)[nH]c1=O (mixture of isomers) |
| 202 to 204 | CSc1cc([N+](=O)[O-])ccc1C(N)=O |
| 113 to 114 | CCC1(C)OC(c2ccc(S(N)(=O)=O)cc2)=C(c2ccc(OC)c(F)c2)C1=O (stereo not given) |
| 134 | CCCc1nc(SC(F)F)c(C(=O)O)n1Cc1ccc(-c2ccccc2S(=O)(=O)NC(=O)NCc2ccccc2Cl)cc1 |
| 138 to 140 | N#Cc1cccc(NC(=O)c2ccc3ccccc3c2)c1 |
| 130 to 133 | COc1ccc(C(=O)Nc2ccccc2)cc1NCc1ccc(C#N)cc1 |
| 138 to 140 | O=C(O)c1cc(F)c(F)c(Br)c1Cl |
| 174 | CC(=O)c1ccc(NC(=O)c2ccc(C=O)cc2)cc1 |
| 204 | CN(c1nccc(-n2nnc3ccccc32)n1)[C@H]1CC[C@H](N(C)S(C)(=O)=O)CC1 |
| 161 to 162 | CCCCOc1ccc2sc(-c3ccccn3)nc(=O)c2c1 |
| 248 to 250 | Cn1nc(-c2c(NCc3ccccn3)nc(N)nc2-c2ccccc2)ccc1=O |
| 221 to 223 | O=C(C=Cc1ccc(O)c(O)c1)C=Cc1ccc(O)c(O)c1 |
| 137 to 141 | Clc1ccc2c(c1)Cc1ccccc1CN2 |
| 185 to 187 | COc1ccc(-c2n[nH]c3c2sc2ccccc23)cc1 |
| 249 to 250 | Cc1nc2cc3c(cc2s1)C1(CO3)C(=O)N(Cc2ccccn2)c2ccccc21 (stereo not given) |
| 70 | N#Cc1ccc(C(Cc2ccc(OC(F)(F)F)cc2)Cn2cncn2)cc1 (stereo not given) |
| 111 to 112 | Cc1ccccc1C(=O)c1nc(Cl)ccc1[N+](=O)[O-] |
| 55 to 57 | COc1cc(C)c(CCCCCCCCCC(=O)CCCCCC(=O)O)c(O)c1OC |
| 195 to 200 | COc1cc2c(c(O)c1OC)C(Cc1ccc(F)cc1)NCC2 (stereo not given) |
| 206 to 208 | CC(=O)NCCc1ccc(C=CC(=O)O)cc1 |
| 91 to 94 | N#CCc1cc(F)cc(Cc2nc3c(F)c(F)cc(F)c3s2)c1 |

| melting point [°C] | Structure (SMILES) |
| --- | --- |
| > 320 | O=C(CCl)c1ccc2cc(O)c(O)cc2c1 |
| 216 to 218 | COc1ccc2c(c1)CCC1CCNC(=O)C(CC(C)=NO)=C21 (stereo not given) |
| 60 to 62 | CCN(CC)CCNC(=O)c1cnc2cc(I)ccc2n1 |
| 86 to 88 | CCC(C(=O)N(C)C)n1cc(C)c(-c2ccccc2)n1 (stereo not given) |
| 67 | CCOP(=O)(OCC)c1sc2ccccc2c1P(=O)(OCC)OCC |
| 94 to 100 | CC(CCc1ccccc1)NCC(O)c1cc(C(N)=O)c2[nH]ccc2c1 (stereo not given) |
| 115 to 132 | CC(C)(C)c1cccc(C(C)(C)C)c1OP1OP(Oc2c(C(C)(C)C)cccc2C(C)(C)C)OP(Oc2c(C(C)(C)C)cccc2C(C)(C)C)O1 (stereo not given) |
| 183 to 184 | O=C(COc1cc(=O)oc2ccccc12)c1ccccc1 |
| 141 to 142 | CNC(=O)C(C)Nc1nc(-c2ccc(F)c3ccccc23)cc(C(C)C)n1 (stereo not given) |
| 123 to 124 | CCCCCCCNC(=O)Nc1ccccc1C(=O)NCCCC1CCN(C(c2ccccc2)c2ccccc2)CC1 |
| 87 to 88 | CCOC(=O)C(C)(C)Oc1ccc(CCc2cc(-c3ccc(C(F)(F)F)cc3)oc2C)cc1 |
| 167 | Cc1cc(COc2ccc(C(=O)NC[C@@H](C(=O)NO)N3CCN(Cc4ccc(F)cc4)CC3)cc2)c2ccccc2n1 |
| 162 to 164 | CC(C)(C)OC(=O)NC1CCCCCC=CC2CC2(C(=O)NS(=O)(=O)C2CC2)NC(=O)C2CC(OC(=O)c3ccc(-c4ccccc4)cc3)CN2C1=O (stereo not given) |
| 202 to 203 | Cn1ccc2cc(Nc3ccncc3)ccc21 |
| 177 to 179 | CCOCc1nc2c(N)nc3cc(-c4cccnc4)cnc3c2n1CC(C)C |
| > 250 | Fc1ccc(-c2ccc3[nH]c4c(ccc5cc[nH]c54)c3c2)c(F)c1 |
| 53 to 55 | NOC(C=CCBr)C(=O)O (stereo not given) |
| 112 to 116 | CSc1nc(Cl)c(-c2c(F)cc(F)cc2F)c(NC(C)C)n1 |
| 123 to 124 | COC(Nc1ccccc1)(OC)c1ccnc(C(=O)c2ccccc2)c1 |
| 159 to 160 | CCOC(=O)c1c(SCc2ccc(OC)cc2)c(CC)c2cc(Cl)ccn2c1=O |
| 136 to 137 | CC(=O)N1C(=O)C(C(=O)Cc2cccs2)c2ccccc21 (stereo not given) |
| 87 to 90 | CC(C)(C)OC(=O)N[C@@H](Cc1ccccc1)C(=O)C=[N+]=[N-] |
| 158 to 162 | CCCCCC(C)NC1=NS(=O)(=O)c2sc(Cl)cc2N1 (stereo not given) |

| melting point [°C] | Structure (SMILES) |
| --- | --- |
| 67 to 68 | CS(=O)c1ccc(-c2cn3c(c2-c2ccccc2)CCC3)cc1 (stereo not given) |
| 165 to 167 | O=S(=O)(NCCn1ccnc1)c1ccc(Br)cc1 |
| 72.5 | CCCCOc1cc(/C=C(\OC)C(=O)O)ccc1CCCc1ccc(OS(=O)(=O)CCCC)c(OC)c1 |
| 259 to 261 | Cn1cc(C2=C(c3c4n(c5ccccc35)CCC(COS(C)(=O)=O)C4)C(=O)NC2=O)c2ccccc21 (stereo not given) |
| 150 | O=c1c(Br)c(N2CCC(c3ccccc3)CC2)ccn1CC1CC1 |
| 99 to 100 | CC(C)C(c1cncnc1C(F)(F)F)N(C)C(=O)Cc1ccccn1 (stereo not given) |
| 106 to 108 | CCN(CC)C(=O)c1ccc(C)c(-c2nc(N(C)CCCN(C)C)nc3c2CNC(=O)N3c2c(F)cccc2F)c1 |
| 164 to 165 | COc1ccc2cc(-c3ccncn3)ccc2n1 |
| 163 to 164 | CC(C)(C)OC(=O)N[C@@H](Cc1ccc(-c2ccccc2)cc1)C(=O)NCCC#N |
| 185 to 187 | CN[C@@H]1CN(c2nc3c(cc2F)c(=O)c(C(=O)O)cn3C(C)(C)C)[C@H]1C (relative stereo) |
| 132 to 133 | COCCNC(=O)c1cccc(-c2cccc3c(C)c(Cc4cc(F)cc(Cl)c4)sc23)c1 |
| 135 to 139 | CNC(=O)CNC(=O)c1cccc(-c2cccc3oc(Cc4cccc(C(F)(F)F)c4)cc23)c1 |
| 267 to 268 | COc1cc(OC)cc(C(=O)CC(=O)c2ccc(O)cc2O)c1 |
| 84 to 85 | N#CCCCOc1cccc(OCc2ccc3ccccc3n2)c1 |
| 130 to 132 | COc1cc([N+](=O)[O-])c(N)cc1C(=O)Oc1ccccc1 |
| > 230 | O=C(Nc1ccc(-n2nc(C(F)(F)F)cc2C(F)(F)F)cc1)c1cc([N+](=O)[O-])cc([N+](=O)[O-])c1 |
| 219 | CNC1(c2ccccc2Cl)C(=O)Nc2c(F)cc(Cl)cc21 (stereo not given) |
| 190 to 192 | CCn1ncc2c(O)c3c(nc21)C(=O)c1ccccc1CC3 |
| 67 to 68 | CCOC(=O)CSc1nnc(S)s1 |
| 81 to 86 | CCCCCCCCCCCCCCCCCCNCC(O)COc1ccc(Nc2ccccc2)cc1 (stereo not given) |
| 147 to 148 | COc1ccc2[nH]c(S(=O)Cc3ncc(C)c(N4CCOCC4)c3Cl)nc2c1 (stereo not given) |

| Structure (SMILES) | melting point [°C] |
| --- | --- |
| O=C(O)c1ccc(OCCF)cc1 | 135 |
| COc1cc(C(=O)OC(C)(C)C)ccc1Cn1cc(C=O)c2ccc(C(=O)NCC3CCCC3)cc21 | 134 to 135 |
| CCOC(=O)c1ncn2c1CN(C)C(=O)c1c(Cl)cccc1-2 | 229 to 230 |
| O=C(CCNC(=O)[C@H](Cc1ccc(-c2ccccc2)cc1)NCP(=O)(Oc1ccccc1)Oc1ccccc1)Oc1ccc2c(c1)CCC2 | 89 to 91 |
| O=C1OC(CN2CCC3(CC2)C(=O)NCN3c2ccccc2)CN1c1ccccc1 (stereo not given) | 166 to 168 |
